Measurements from patent publication US12228572B2, “Enhanced expression of polo-like kinase 3 (PLK3) in human immunodeficiency virus (HIV)-infected cells” (priority 2021, dated 2025).

Target: T1, human PLK3 (Homo sapiens, UniProt Q9H4B4)
T1 construct: expressed in transfected cells
Format: cell-based

T1 sequence (Q9H4B4 whole entry): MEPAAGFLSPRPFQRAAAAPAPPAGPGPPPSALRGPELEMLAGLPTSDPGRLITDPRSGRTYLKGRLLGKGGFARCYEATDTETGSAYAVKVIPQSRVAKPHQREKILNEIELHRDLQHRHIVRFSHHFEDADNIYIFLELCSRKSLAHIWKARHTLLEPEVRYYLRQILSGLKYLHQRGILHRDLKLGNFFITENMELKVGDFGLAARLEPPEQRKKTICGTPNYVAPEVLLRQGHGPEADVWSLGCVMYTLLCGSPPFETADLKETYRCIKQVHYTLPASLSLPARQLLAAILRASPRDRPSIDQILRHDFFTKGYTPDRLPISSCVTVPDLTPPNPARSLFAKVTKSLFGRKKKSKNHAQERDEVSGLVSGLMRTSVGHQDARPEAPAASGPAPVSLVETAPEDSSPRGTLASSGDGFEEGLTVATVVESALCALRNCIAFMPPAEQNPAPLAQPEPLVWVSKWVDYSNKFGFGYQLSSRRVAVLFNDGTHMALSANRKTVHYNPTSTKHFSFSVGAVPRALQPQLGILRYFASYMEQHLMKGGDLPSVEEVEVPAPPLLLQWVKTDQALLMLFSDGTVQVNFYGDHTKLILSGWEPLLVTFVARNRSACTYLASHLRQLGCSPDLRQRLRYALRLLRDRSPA

SMILES: COc1cc2ncn(-c3cc(OCc4ccccc4C(F)(F)F)c(C(N)=O)s3)c2cc1OC [GW843682X]
- effect on the anti-HIV-1 ability of human PLK3: can inhibit the anti-HIV-1 ability of human PLK3
- expression level of PLK3: not changed
